Assay results as given in BindingDB's records for patent US10807952 (Achillion Pharmaceuticals, Inc., 2020).

These molecules were tested against Complement factor D (Homo sapiens, UniProt P00746) (assay: Not found).
Excerpt: Not found

Complement factor D, sequence (P00746 whole entry): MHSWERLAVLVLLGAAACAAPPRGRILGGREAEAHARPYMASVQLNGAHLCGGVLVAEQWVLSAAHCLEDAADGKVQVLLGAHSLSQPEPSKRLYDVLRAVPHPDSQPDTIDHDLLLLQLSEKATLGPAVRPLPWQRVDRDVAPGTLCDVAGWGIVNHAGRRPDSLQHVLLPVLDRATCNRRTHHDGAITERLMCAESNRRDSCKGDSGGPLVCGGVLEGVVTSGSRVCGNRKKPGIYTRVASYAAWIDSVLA

SMILES	IC50
NC(=O)c1nn(CC(=O)N2C[C@H](F)C[C@H]2C(=O)Nc2cccc(Br)n2)c2cc(C(F)(F)F)sc12 [US10807952, Cmp No. 34]	< 1000 nM
NC(=O)c1nn(CC(=O)N2C[C@H](F)C[C@H]2C(=O)Nc2cccc(-c3nc4cccc(Cl)c4[nH]3)c2F)c2ccccc12 [US10807952, Cmp No. 27]	< 1000 nM
CC(=O)c1nn(CC(=O)N2C[C@H](F)C[C@H]2C(=O)Nc2cccc(-c3ccc4[nH]cnc4c3Cl)c2F)c2cnccc12 [US10807952, Cmp No. 1]	< 1000 nM
NC(=O)c1nn(CC(=O)N2C[C@H](F)C[C@H]2C(=O)Nc2cccc(-c3ccc4[nH]cnc4c3Cl)c2F)c2ccc(Br)cc12 [US10807952, Cmp No. 4]	< 1000 nM
NC(=O)c1cccc(CC(=O)N2C[C@H](F)C[C@H]2C(=O)Nc2cccc(-c3ccccc3Cl)c2F)n1 [US10807952, Cmp No. 38]	< 1000 nM
